Experimental data as given in PMC12441791, “Structural modifications of toxyloxanthone C and macluraxanthone isolated from Maclura cochinchinensis: cytotoxicity, antibacterial activity, and in silico studies” (RSC Advances, 2025).
Converted amounts (≈) assume the structure as drawn. Where two headings read alike, the source gives them in different places.

Tests used:
[1] = system: A549 (human lung carcinoma) cells; test: In vitro cytotoxicity, A549; assay type: cell-based
Protocol: (§1) All types of cancer and non-tumorigenic cells were purchased from ATCC. Cytotoxicity assays against human cervical carcinoma (HelaS3; ATCC CCL2-2), human hepatocellular carcinoma (HepG2; ATCC HB-8065), human lung carcinoma (A549; ATCC CCL-185), and African green monkey kidney (Vero; ATCC CCL-81) cell lines were performed by […].[44] Cells proliferation was performed using the MTT colorimetric assay,[44] as in our previous publication.[4]

[2] = system: MRSA, S. aureus, B. subtilis, and B. cereus; test: Antibacterial activity stated over all four Gram-positive strains; assay type: cell-based; details: MRSA, S. aureus, B. subtilis, B. cereus taken together; read-out: MIC against all bacterial strains tested
Protocol: (§2) Four bacterial cultures Bacillus cereus ATCC 11778, Bacillus subtilis ATCC 6633, Staphylococcus aureus ATCC 25923, and Methicillin resistant Staphylococcus aureus (MRSA) were employed as the test organisms. Minimum inhibitory concentration (MIC) values were determined using the dilution method, as described in the M07-A9,[45] as described in our previous paper.[4,46]

[3] = system: HelaS3, A549, and HepG2 cancer cell lines; test: Cytotoxicity stated over the three cancer cell lines; assay type: cell-based, human; details: HelaS3, A549, HepG2 taken together
Protocol: as §1

[4] = system: Bacillus subtilis ATCC 6633; test: Antibacterial microdilution MIC, B. subtilis; assay type: cell-based
Protocol: as §2

[5] = system: Bacillus cereus ATCC 11778; test: Antibacterial microdilution MIC, B. cereus; assay type: cell-based
Protocol: as §2

[6] = In vitro cytotoxicity, Vero normal cells; assay type: cell-based, African green monkey; details: African green monkey, Vero cells (kidney, non-tumorigenic)
Protocol: as §1

[7] = system: HelaS3 (human cervical carcinoma) cells; test: In vitro cytotoxicity, HelaS3; assay type: cell-based; details: HeLa S3
Protocol: as §1

S. aureus ATCC 25923 = test: Antibacterial microdilution MIC, S. aureus; assay type: cell-based; details: Staphylococcus aureus
Protocol: as §2

[8] = system: HepG2 (human hepatocellular carcinoma) cells; test: In vitro cytotoxicity, HepG2; assay type: cell-based
Protocol: as §1

[9] = system: Methicillin resistant Staphylococcus aureus (MRSA); test: Antibacterial microdilution MIC, MRSA; assay type: cell-based; details: read-out: MIC MRSA
Protocol: as §2

[10] = ATCC6633, microdilution method, ATCC 6633, read-out: MIC B. subtilis
[11] = ATCC11778, microdilution method, ATCC 11778, read-out: MIC B. cereus
[12] = ATCC25923, microdilution method, ATCC 25923, read-out: MIC S. aureus

Row | SMILES | IC50 [1] [µM] | MIC [2] [µg/mL] | IC50 ([3]; Homo sapiens, read-out: Cytotoxicity against three cancer cell lines (IC50 values, range over lines)) [µM] | MIC [4, 10] [µg/mL] | MIC [5, 11] [µg/mL] | IC50 [6] [µM] | IC50 [7] [µM] | MIC (S. aureus ATCC 25923; [12]) [µg/mL] | IC50 [8] [µM] | MIC ([9]; microdilution method) [µg/mL] | Cytotoxicity against three cancer cell lines (IC50 values, range over lines) [3] | MIC ([4]; ATCC6633, read-out: MIC B. subtilis) [µg/mL] | MIC ([5]; ATCC11778, read-out: MIC B. cereus) [µg/mL] | MIC (S. aureus ATCC 25923; ATCC25923, read-out: MIC S. aureus) [µg/mL] | MIC [9] [µg/mL]
1 | C=CC(C)(C)c1c2c(c(O)c3c(=O)c4ccc(OC(C)=O)c(OC(C)=O)c4oc13)C=CC(C)(C)O2 [Compound 2a, 5,6-Diacetoxymacluraxanthone] | 15.7 ± 1.17 | 8 to 32 (≈ 16.7 to 66.9 µM) | 15.7 to 25.6 | 32 (≈ 66.9 µM) | 16 (≈ 33.4 µM) | 10.1 ± 1.67 | 25.6 ± 4.77 | 16 (≈ 33.4 µM) | 24.5 ± 2.98 | 8 (≈ 16.7 µM) |  |  |  |  | 
2 | C=CC(C)(C)c1c2c(c(OC(=O)CCCC)c3c(=O)c4ccc(OC(=O)CCCC)c(OC(=O)CCCC)c4oc13)C=CC(C)(C)O2 [Compound 2b, 1,5,6-Tripentanoyloxymacluraxanthone] | 41.8 ± 1.91 |  |  | > 128 | > 128 | 36 ± 2.32 | 55.3 ± 2.18 | > 128 | > 100 | > 128 |  |  |  |  | 
3 | C=CC(C)(C)c1c2c(c(O)c3c(=O)c4ccc(OS(C)(=O)=O)c(OS(C)(=O)=O)c4oc13)C=CC(C)(C)O2 [Compound 2c, 5,6-Dimesyloxymacluraxanthone] | 48.8 ± 4.73 |  |  | > 128 | > 128 | > 100 | 84.3 ± 7.86 | > 128 | > 100 | > 128 |  |  |  |  | 
4 | C=CC(C)(C)c1c2c(c(O)c3c(=O)c4ccc(OC)c(OC)c4oc13)C=CC(C)(C)O2 [Compound 2d, 5,6-Dimethoxymacluraxanthone] | > 100 |  |  | > 128 | > 128 | > 100 | > 100 | > 128 | > 100 | > 128 | no cytotoxicity |  |  |  | 
5 | C=CC(C)(C)c1c2c(c(O)c3c(=O)c4ccc(O)c(OC)c4oc13)C=CC(C)(C)O2 [Compound 2e, 5-Methoxymacluraxanthone] | 90.5 ± 6.23 |  |  | > 128 | > 128 | > 100 | > 100 | > 128 | > 100 | > 128 |  |  |  |  | 
6 | C=CC(C)(C)c1c2c(c(O)c3c(=O)c4ccc(OCC)c(OCC)c4oc13)C=CC(C)(C)O2 [Compound 2f, 5,6-Diethoxymacluraxanthone] | > 100 |  |  | > 128 | > 128 | > 100 | > 100 | > 128 | > 100 | > 128 | no cytotoxicity |  |  |  | 
7 | C=CC(C)(C)c1c2c(c(O)c3c(=O)c4ccc(O)c(OCC)c4oc13)C=CC(C)(C)O2 [Compound 2g, 5-Ethoxymacluraxanthone] | > 100 |  |  | > 128 | > 128 | > 100 | > 100 | > 128 | > 100 | > 128 | no cytotoxicity |  |  |  | 
8 | COc1cccc2c1C(=O)c1c(O)c3c(c(O)c1C2=O)C[C@@](O)(C(=O)CO)C[C@@H]3O[C@H]1C[C@H](N)[C@H](O)[C@H](C)O1 [Doxorubicin, reference compound] | 0.48 ± 0.036 |  |  |  |  | 1.95 ± 0.13 | 0.29 ± 0.02 |  | 0.37 ± 0.02 |  |  |  |  |  | 
9 | CN[C@H](CC(C)C)C(=O)N[C@H]1C(=O)N[C@@H](CC(N)=O)C(=O)N[C@H]2C(=O)N[C@H]3C(=O)N[C@H](C(=O)N[C@H](C(=O)O)c4cc(O)cc(O)c4-c4cc3ccc4O)[C@H](O)c3ccc(c(Cl)c3)Oc3cc2cc(c3O[C@@H]2O[C@H](CO)[C@@H](O)[C@H](O)[C@H]2O[C@H]2C[C@](C)(N)[C@H](O)[C@H](C)O2)Oc2ccc(cc2Cl)[C@H]1O [Vancomycin, reference compound] |  |  |  |  |  |  |  |  |  |  |  | 2 (≈ 1.38 µM) | 1 (≈ 0.69 µM) | 2 (≈ 1.38 µM) | 2 (≈ 1.38 µM)
